For 21 compounds, IC50 results are on record in patent publication US11524966B1 (Valo Early Discovery, Inc., priority 2017, dated 2022).

In this test the target is T1, USP28 (His-tagged USP28-FL-mammalian) (Homo sapiens, UniProt Q96RU2).
T1 construct: Expression of USP28 (1-1077)-TEV-6*His (pTT5 vector); made in house; host or cells: Expi293f cells (pTT5 vector)
T1 sequence (Q96RU2 1-1077): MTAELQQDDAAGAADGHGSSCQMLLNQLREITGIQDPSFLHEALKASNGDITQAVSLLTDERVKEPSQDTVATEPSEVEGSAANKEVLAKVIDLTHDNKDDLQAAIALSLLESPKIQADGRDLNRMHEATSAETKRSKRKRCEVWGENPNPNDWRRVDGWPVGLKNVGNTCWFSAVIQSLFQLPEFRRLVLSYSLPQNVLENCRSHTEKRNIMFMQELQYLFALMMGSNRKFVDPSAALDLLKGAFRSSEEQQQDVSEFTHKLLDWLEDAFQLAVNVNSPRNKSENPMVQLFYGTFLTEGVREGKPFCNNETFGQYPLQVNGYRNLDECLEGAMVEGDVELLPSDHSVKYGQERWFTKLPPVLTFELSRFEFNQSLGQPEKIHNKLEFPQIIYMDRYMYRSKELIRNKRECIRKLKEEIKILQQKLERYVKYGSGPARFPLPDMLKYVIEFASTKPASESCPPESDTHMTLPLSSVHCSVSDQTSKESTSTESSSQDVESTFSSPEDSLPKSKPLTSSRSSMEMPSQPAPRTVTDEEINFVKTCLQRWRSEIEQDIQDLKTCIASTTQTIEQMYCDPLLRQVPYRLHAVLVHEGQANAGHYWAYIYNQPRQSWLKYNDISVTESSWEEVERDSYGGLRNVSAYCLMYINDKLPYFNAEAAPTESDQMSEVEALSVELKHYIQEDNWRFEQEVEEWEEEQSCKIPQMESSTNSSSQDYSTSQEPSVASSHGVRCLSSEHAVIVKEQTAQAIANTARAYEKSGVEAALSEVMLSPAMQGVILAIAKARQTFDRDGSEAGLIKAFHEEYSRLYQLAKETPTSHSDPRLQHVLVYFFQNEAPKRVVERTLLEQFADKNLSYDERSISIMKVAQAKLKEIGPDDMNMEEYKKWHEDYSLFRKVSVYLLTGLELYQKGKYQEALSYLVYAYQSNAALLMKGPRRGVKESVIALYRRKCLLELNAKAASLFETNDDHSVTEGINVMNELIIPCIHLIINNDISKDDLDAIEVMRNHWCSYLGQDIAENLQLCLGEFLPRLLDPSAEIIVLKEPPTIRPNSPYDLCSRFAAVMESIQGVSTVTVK
As to the kind of experiment: Ubiquitin-Rhodamine 110 Assay for USP28 Activity, Example A-1(a). As to conditions: Ubiquitin-Rhodamine 110 assay, Example A-1(a); read-out: USP28 A-1(a) IC50 range. The class given is biochemical. The method in brief:
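Full-length His-tagged USP28 (1-1077, Expi293F-expressed; […]) was preincubated 30 min with compound (25 μM–1.3 nM, 10-point 3-fold) in 20 mM Tris-HCl pH 8.0, 3 mM BME, 0.03% BGG, 0.01% Triton X-100. Ub-Rh110 (25 nM) was then added for 45 min at room temperature, stopped with citric acid, and read by fluorescence (485/535 nm).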

By IC50 is commonly meant the concentration at which inhibition is half-maximal. `CO[C@H]1CN(c2cc3c(cc2F)C[C@@H](NC(=O)c2sc4nc(C)ccc4c2N)CO3)C[C@@H]1N` [Example 94, 3-amino-N-[(3R)-7-[(3S,4S)-3-amino-4-methoxypyrrolidin-1-yl]-6-fluoro-3,4-dihydro-2H-1-benzopyran-3-yl]-6-methylthieno[2,3-b]pyridine-2-carboxamide]: the IC50 lay in the range of 1 to 50 nM. Regarding `Cc1ccc2c(N)c(C(=O)N[C@H]3COc4c(C#N)c(N5CC6CCC(C5)N6)cc(F)c4C3)sc2n1` [Example 95, 3-amino-N-[(3R)-8-cyano-7-{3,8-diazabicyclo[3.2.1]octan-3-yl}-5-fluoro-3,4-dihydro-2H-1-benzopyran-3-yl]-6-methylthieno[2,3-b]pyridine-2-carboxamide], the IC50 fell in the range of 1 to 50 nM.

As for `Cc1ccc2c(N)c(C(=O)N[C@H]3COc4c(C#N)c(N5CC6CNCC(C5)O6)cc(F)c4C3)sc2n1` [Example 96, 3-amino-N-[(3R)-8-cyano-5-fluoro-7-{9-oxa-3,7-diazabicyclo[3.3.1]nonan-3-yl}-3,4-dihydro-2H-1-benzopyran-3-yl]-6-methylthieno[2,3-b]pyridine-2-carboxamide], the IC50 was in the range of 1 to 50 nM. With `Cc1cnc2c(N)c(C(=O)N[C@H]3COc4cc(N5CC6CCC(C5)N6)c(F)c(F)c4C3)sc2n1` [Example 97, 7-amino-N-[(3R)-7-{3,8-diazabicyclo[3.2.1]octan-3-yl]-5,6-difluoro-3,4-dihydro-2H-1-benzopyran-3-yl]-3-methylthieno[2,3-b]pyrazine-6-carboxamide], the IC50 was 1 to 50 nM. In the case of `Cc1nc2sc(C(=O)N[C@H]3COc4c(F)c(N5CC6CCC(C5)N6)cc(F)c4C3)c(N)c2s1` [Example 98, 6-amino-N-[(3R)-7-{3,8-diazabicyclo[3.2.1]octan-3-yl}-5,8-difluoro-3,4-dihydro-2H-1-benzopyran-3-yl]-2-methylthieno[2,3-d][1, 3]thiazole-5-carboxamide], the IC50 lay in the range of 1 to 50 nM. Take `Cc1ccc2c(N)c(C(=O)N[C@H]3CCc4c(ccc(N5CC6CNCC(C5)O6)c4F)C3)sc2n1` [Example 99, 3-amino-N-[(2S)-5-fluoro-6-{9-oxa-3,7-diazabicyclo[3.3.1]nonan-3-yl}-1,2,3,4-tetrahydronaphthalen-2-yl]-6-methylthieno[2,3-b]pyridine-2-carboxamide]: the IC50 is 1 to 50 nM. As for `Cc1ccc2c(N)c(C(=O)N[C@@H]3CCc4c(ccc(N5CC6CNCC(C5)O6)c4F)C3)sc2n1` [Example 100, 3-amino-N-[(2R)-5-fluoro-6-{9-oxa-3,7-diazabicyclo[3.3.1]nonan-3-yl}-1,2,3,4-tetrahydronaphthalen-2-yl]-6-methylthieno[2,3-b]pyridine-2-carboxamide], the IC50 lay within 50 to 200 nM.

As for `Cc1ccc2c(N)c(C(=O)N[C@H]3CCc4cc(N5CC6CNCC(C5)O6)c(F)cc4C3)sc2n1` [Example 101, 3-amino-N-[(2S)-7-fluoro-6-{9-oxa-3,7-diazabicyclo[3.3.1]nonan-3-yl}-1,2,3,4-tetrahydronaphthalen-2-yl]-6-methylthieno[2,3-b]pyridine-2-carboxamide], the IC50 lay within 1 to 50 nM. For the compound `Cc1ccc2c(N)c(C(=O)N[C@H]3CCc4c(ccc(N5CC6CNCC(C5)O6)c4C#N)C3)sc2n1` [Example 102, 3-amino-N-[(2S)-5-cyano-6-{9-oxa-3,7-diazabicyclo[3.3.1]nonan-3-yl}-1,2,3,4-tetrahydronaphthalen-2-yl]-6-methylthieno[2,3-b]pyridine-2-carboxamide], the IC50 lay in the range of 1 to 50 nM. `Cc1ccc2c(N)c(C(=O)N[C@H]3COc4c(ccc(N5CC6CCC(C5)N6)c4F)C3)sc2n1` [Example 103, 3-amino-N-[(3R)-7-{3,8-diazabicyclo[3.2.1]octan-3-yl}-8-fluoro-3,4-dihydro-2H-1-benzopyran-3-yl]-6-methylthieno[2,3-b]pyridine-2-carboxamide]: the IC50 lay in the range of 1 to 50 nM.

Turning to `Cc1ccc2c(N)c(C(=O)N[C@H]3COc4cc(N5CC6CCC(C5)N6)c(F)cc4C3)sc2n1` [Example 104, 3-amino-N-[(3R)-7-{3,8-diazabicyclo[3.2.1]octan-3-yl]-6-fluoro-3,4-dihydro-2H-1-benzopyran-3-yl]-6-methylthieno[2,3-b]pyridine-2-carboxamide], the IC50 was 1 to 50 nM. In the case of `Cc1ccc2c(N)c(C(=O)N[C@H]3COc4c(ccc(N5CC6CNCC(C5)O6)c4F)C3)sc2n1` [Example 105, 3-amino-N-[(3R)-8-fluoro-7-{9-oxa-3,7-diazabicyclo[3.3.1]nonan-3-yl}-3,4-dihydro-2H-1-benzopyran-3-yl]-6-methylthieno[2,3-b]pyridine-2-carboxamide] it was 1 to 50 nM. As for `Cc1ccc2c(N)c(C(=O)N[C@H]3COc4cc(N5CC6CNCC(C5)O6)c(F)cc4C3)sc2n1` [Example 106, 3-amino-N-[(3R)-6-fluoro-7-{9-oxa-3,7-diazabicyclo[3.3.1]nonan-3-yl}-3,4-dihydro-2H-1-benzopyran-3-yl]-6-methylthieno[2,3-b]pyridine-2-carboxamide], the half-inhibitory concentration (IC50) is 1 to 50 nM. On to `Cc1cnc2c(N)c(C(=O)N[C@H]3COc4c(F)c(N5CC6CCC(C5)N6)cc(F)c4C3)sc2n1` [Example 107, 7-amino-N-[(3R)-7-{3,8-diazabicyclo[3.2.1]octan-3-yl}-5,8-difluoro-3,4-dihydro-2H-1-benzopyran-3-yl]-3-methylthieno[2,3-b]pyrazine-6-carboxamide], for which the IC50 fell in the range of 1 to 50 nM. With `Cc1nc2sc(C(=O)N[C@H]3COc4cc(N5CC6CCC(C5)N6)c(F)c(F)c4C3)c(N)c2s1` [Example 108, 6-amino-N-[(3R)-7-{3,8-diazabicyclo[3.2.1]octan-3-yl}-5,6-difluoro-3,4-dihydro-2H-1-benzopyran-3-yl]-2-methylthieno[2,3-d][1,3]thiazole-5-carboxamide], the IC50 lay in the range of 1 to 50 nM. In the case of `Cc1ccc2c(N)c(C(=O)N[C@H]3CCc4cc(N5CC6CNCC(C5)O6)c(C#N)cc4C3)sc2n1` [Example 109, 3-amino-N-[(2S)-7-cyano-6-{9-oxa-3,7-diazabicyclo[3.3.1]nonan-3-yl}-1,2,3,4-tetrahydronaphthalen-2-yl]-6-methylthieno[2,3-b]pyridine-2-carboxamide] it was 1 to 50 nM; in that of `Cc1ccc2c(N)c(C(=O)N[C@H]3COc4c(F)c(N5C[C@@H]6C[C@H]5CN6)cc(F)c4C3)sc2n1` [Example 110, 3-amino-N-[(3R)-7-[(1S,4S)-2,5-diazabicyclo[2.2.1]heptan-2-yl]-5,8-difluoro-3,4-dihydro-2H-1-benzopyran-3-yl]-6-methylthieno[2,3-b]pyridine-2-carboxamide], 1 to 50 nM; in that of `Cc1ccc2c(N)c(C(=O)N[C@H]3COc4c(F)c(N5C[C@H]6C[C@@H]5CN6)cc(F)c4C3)sc2n1` [Example 111, 3-amino-N-[(3R)-7-[(1R,4R)-2,5-diazabicyclo[2.2.1]heptan-2-yl]-5,8-difluoro-3,4-dihydro-2H-1-benzopyran-3-yl]-6-methylthieno[2,3-b]pyridine-2-carboxamide], 1 to 50 nM. For `Cc1ccc2c(N)c(C(=O)N[C@H]3COc4cc(N5C[C@@H]6C[C@H]5CN6)c(F)c(F)c4C3)sc2n1` [Example 112, 3-amino-N-[(3R)-7-[(1S,4S)-2,5-diazabicyclo[2.2.1]heptan-2-yl]-5,6-difluoro-3,4-dihydro-2H-1-benzopyran-3-yl]-6-methylthieno[2,3-b]pyridine-2-carboxamide], the 50% inhibitory concentration (IC50) was 1 to 50 nM. Regarding `Cc1ccc2c(N)c(C(=O)N[C@H]3COc4nc(N5CC6CNCC(C5)C6(F)F)ccc4C3)sc2n1` [Example 113, 3-amino-N-[(3R)-7-{9 9-difluoro-3,7-diazabicyclo[3.3.1]nonan-3-yl}-2H b,3H,4H-pyrano[2,3-b]pyridin-3-yl]-6-methylthieno[2,3-b]pyridine-2-carboxamide], the IC50 lay within 1 to 50 nM. For the compound `CCO[C@H]1CN(c2ccc3c(c2)OC[C@H](NC(=O)c2sc4nc(C)ccc4c2N)C3)C[C@@H]1N` [Example 115, 3-amino-N-[(3R)-7-[(3S,4S)-3-amino-4-ethoxypyrrolidin-1-yl]-3,4-dihydro-2H-1-benzopyran-3-yl]-6-methylthieno[2,3-b]pyridine-2-carboxamide], the IC50 lay in the range of 1 to 50 nM.
